Experimental data reported in ChEMBL document CHEMBL3407368, “Further studies on anti-invasive chemotypes: An excursion from chalcones to curcuminoids” (Bioorg Med Chem Lett, 2015).
The source made the active and inactive calls. The rule behind the calls is not given here.

Key:
MCF7/6 [1] = experiment: Antiinvasive activity against human MCF7/6 cells precultured with 9 day old chick embryo heart tissue fragment at 10 micromol/l by chick heart invasion assay; format: functional, cell-based
MCF7/6 [2] = experiment: Antiinvasive activity against human MCF7/6 cells precultured with 9 day old chick embryo heart tissue fragment at 1 micromol/l by chick heart invasion assay; format: functional, cell-based
MCF7/6 [3] = experiment: Antiinvasive activity against human MCF7/6 cells precultured with 9 day old chick embryo heart tissue fragment at 0.1 micromol/l by chick heart invasion assay; format: functional, cell-based
[4] = Antiinvasive activity against human MCF7/6 cells precultured with 9 day old chick embryo heart tissue fragment assessed as lowest concentration by chick heart invasion assay; format: functional
MCF7/6 [5] = experiment: Antiinvasive activity against human MCF7/6 cells precultured with 9 day old chick embryo heart tissue fragment at 100 micromol/l by chick heart invasion assay; format: functional, cell-based
MCF7/6 [6] = experiment: Antiinvasive activity against human MCF7/6 cells precultured with 9 day old chick embryo heart tissue fragment at 0.01 micromol/l by chick heart invasion assay; format: functional, cell-based
[7] = Cytotoxicity against human MCF7/6 cells at 100 umol/l; format: cell-based; conditions: mcf7/6, 100 µM
[8] = Cytotoxicity against human MCF7/6 cells at 10 umol/l; format: cell-based; conditions: mcf7/6, 10 µM

| SMILES | Activity (MCF7/6 [1]) | Activity (MCF7/6 [2]) | Activity (MCF7/6 [3]) | logMIC [4] | Activity (MCF7/6 [5]) | Activity (MCF7/6 [6]) | Activity [7] | Activity [8] |
| --- | --- | --- | --- | --- | --- | --- | --- | --- |
| COc1cc(/C=C/C(=O)CC(=O)/C=C/c2ccc(O)c(OC)c2)ccc1O [CURCUMIN] | Active | inactive | inactive | 1 | – | – | – | – |
| O=C(/C=C/C=C/c1ccccc1)c1ccc(Cl)cc1 | inactive | Active | inactive | 3 | Active | – | – | – |
| COc1cc(/C=C\c2ccc(F)cc2)cc(OC)c1OC | – | – | – | 1 | – | – | – | – |
| O=C(/C=C/C=C/c1ccccc1)c1ccc(F)cc1 | – | Active | inactive | 0 | Active | inactive | Toxic | Toxic |
| C(=C\c1ccccc1)/c1ccccc1 | – | – | – | -1 | – | – | – | – |
| O=C(/C=C/c1ccccc1)c1ccccc1 [CHALCONE] | Active | inactive | – | 1 | – | – | – | – |
| O=C(/C=C/c1ccccc1)/C=C/c1ccccc1 | Active | Active | inactive | 0 | Active | inactive | Toxic | – |
| O=C(/C=C/C=C/c1ccccc1)c1ccccc1 | inactive | inactive | inactive | 2 | Active | – | Toxic | Toxic |
| COc1cc(C(=O)/C=C/c2ccc(F)cc2)cc(OC)c1OC | Active | Active | Active | -2 | – | Active | – | Non-toxic |
| COc1cc(C(=O)/C=C/C=C/c2ccc(F)cc2)cc(OC)c1OC | Active | inactive | inactive | 1 | – | – | – | Toxic |
| O=C(/C=C/C=C/c1ccccc1)/C=C/c1ccccc1 | Active | Active | inactive | 0 | Active | inactive | Toxic | – |
| COc1cc(C(=O)/C=C/C=C/c2ccccc2)cc(OC)c1OC | Active | inactive | inactive | 1 | Active | inactive | Toxic | Toxic |
| COc1cc(/C=C/c2ccc(F)cc2)cc(OC)c1OC | – | – | – | 0 | – | – | – | – |
| O=C(/C=C/c1ccc(O)cc1)CC(=O)/C=C/c1ccc(O)cc1 [BISDEMETHOXYCURCUMIN] | Active | inactive | inactive | 1 | – | – | – | Toxic |
